The test deals with T1, 5HT UPTAKE (Rattus norvegicus, UniProt P31652).
T1 construct: Crude synaptosomal preparations were isolated after differential centrifugation; from tissue; host or cells: rat cerebral cortex, crude synaptosomes
Briefly: Inhibition of synaptosomal uptake of 3H-serotonin (3H-5HT) in vitro, rat cerebral cortex synaptosomes. Format: biochemical, Sprague-Dawley rats. The following applies: concentration needed to inhibit the uptake of 3H-5HT by 50%; rat cortical synaptosomes, 37°C, 5 min, 50 nM 3H-5HT. How it is done: This general procedure is set forth in Wong et al., Drug Development Research 6:397-403 (1985).
Male Sprague-Dawley rats (110-150 g) from Harlan Industries (Cumberland, IN) were fed Purina Chow ad libitum for at least 3 days before being used in the studies. Rats were killed by decaptiation. Whole brains were removed and dissected. Cerebral cortex was homogenized in 9 volumes of a medium containing 0.32 M sucrose and 10 mM glucose. Crude synaptosomal preparations were isolated after differential centrifugation at 1,000 g for 10 min. and 17,000 g for 28 min. The final pellets were suspended in the same medium and kept in ice until use within the same day.
Synaptosomal uptake of ³H-serotonin (³H-5-hydroxytryptamine, ³H-5HT) was determined as follows: Cortical synaptosomes (equivalent to 1 mg of protein) were incubated at 37°C for 5 min in 1 ml of Krebs-bicarbonate medium containing also 10 mM glucose, […], 1 mM ascorbic acid, 0.17 mM EDTA and 50 nM ³H-5HT. The reaction mixture was immediately diluted with 2 ml of ice-chilled Krebs-bicarbonate buffer and filtered under vacuum with a cell harvester (Brandel, Gaithersburg, MD). Filters were rinsed twice with approximately 5 ml of ice-chilled 0.9% saline and were transferred to a counting vial containing 10 ml of scintillation fluid (PCS, Amersham, Arlington Heights, IL). Radioactivity was measured by a liquid scintillation spectrophotometer. Accumulation of ³H-5HT at 4°C represented the background and was subtracted from all samples.
The results of the evaluation of various compounds of the present invention are set forth below in Table I. In Table I, the first column provides the Example Number of the compound evaluated; the next 7 columns identify the structure of the compound evaluated when taken with the formula set forth in the heading; the next-succeeding column identifies the salt form of the compound evaluated; and the final column provides the amount of the test compound expressed in nanomolar concentration needed to inhibit the uptake of ³H-5HT by 50%, and is indicated in Table I as IC₅₀. Numbers in parentheses, if any, represent percent inhibition at 1000 nM.

Molecules are shown by their SMILES. Where a name gives a salt, the structure may show the parent alone.

T1 sequence (P31652 whole entry): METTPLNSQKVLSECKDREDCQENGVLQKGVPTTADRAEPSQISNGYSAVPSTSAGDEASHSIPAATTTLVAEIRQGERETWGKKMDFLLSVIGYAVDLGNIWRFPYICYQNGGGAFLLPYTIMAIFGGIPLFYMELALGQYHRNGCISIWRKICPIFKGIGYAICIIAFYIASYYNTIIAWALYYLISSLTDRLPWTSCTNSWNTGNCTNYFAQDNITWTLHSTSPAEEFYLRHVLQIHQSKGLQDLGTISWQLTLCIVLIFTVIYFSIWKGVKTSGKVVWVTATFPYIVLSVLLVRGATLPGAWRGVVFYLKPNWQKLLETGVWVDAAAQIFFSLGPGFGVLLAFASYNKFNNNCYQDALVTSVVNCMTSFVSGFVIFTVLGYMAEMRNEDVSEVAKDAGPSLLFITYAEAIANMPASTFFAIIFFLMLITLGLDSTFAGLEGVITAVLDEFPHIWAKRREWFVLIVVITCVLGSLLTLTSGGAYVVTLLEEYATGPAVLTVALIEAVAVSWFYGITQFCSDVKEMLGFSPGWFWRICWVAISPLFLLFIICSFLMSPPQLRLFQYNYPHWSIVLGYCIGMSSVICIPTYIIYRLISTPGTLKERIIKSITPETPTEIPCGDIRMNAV

`C[C@@H]1c2ccc(Cl)cc2CC[C@@H]1N1CCNCC1` (single isomer, unassigned; (-)) [Example 33b, (-)cis-1-Methyl-2-piperazinyl-6-chloro-1,2,3,4-tetrahydronaphthalene dihydrochloride dihydrate]: it took 8.2 nM to reach half-maximal inhibition (IC50).

Values taken from EP0343830A2, “Ring-substituted 2-amino-1,2,3,4-tetrahydronaphthalenes” (ELI LILLY AND COMPANY, priority 1988, dated 1989).
